Data set [1] relates to reticuloendothelial system. Put plainly: Phagocytic function of reticuloendothelial system, serum clearance index of carbon grain. The class given is in vivo, ICR strain mice. How it is done:
One group was given N.S. at 20 ml/kg i.g. as a normal control. A positive control group was given CTX i.g. at 25 mg/kg on day 1 and 6.

Another data set has as its system mouse sarcoma S180. Put plainly: Mouse sarcoma S180 model, inhibition of tumor growth. How it is done:
50 female ICR strain mice, weighing 19–22 g, were randomly divided into 5 groups of 10 each. S180 sarcoma mass (about 2 mm^3 each) was transplanted subcutaneously into the right armpits of all animals following standard procedure. 3 test groups were given N-(12-methyl-tridecyl)hydrazine hydrochloride (Sample) at 0.1, 0.2, and 0.4 g/kg intragastrically (i.g.) daily for 11 days. The positive control group was given a single dose of cytoxan (CTX) i.g. (25 mg/kg) on day 1. The negative control group was given 0.8% Tween 80 at 0.4 ml/10 g daily for 11 days. On the 12th day, all mice were sacrificed and the tumor was isolated and weighed. The rate of inhibition of tumor growth was calculated and subject to t-test.

The test system of the next data set is serum hemolysinogenesis. Format: in vivo, ICR strain mice. How it is done: The method of administration in each group was the same as above (phagocytic function). However, on the 6th day after administration, 0.2 ml 3:5 (V/V) sheep red blood cell (RBC) suspension was injected i.p. into each mouse. 4 days later (day 10), blood was drawn from all animals and serum was prepared and then diluted 600 times. 1 ml diluted serum was mixed with 0.5 ml 10% sheep RBC suspension. N.S. was used as blank control. All samples were incubated at 37° C. for 30 minutes, and centrifuged (2000 rev/min) for 5 minutes. The supernatant was collected for measurement of OD540 and HC50 was calculated.

Data set [2] relates to immune organs (thymus and pancreas). The data set is described as follows: Weights of immune organs (organ indices). Format: in vivo, ICR strain mice. The text has this:
The mice were sacrificed after the Serum hemolysinogenesis test above and the thymus and pancreas were collected and weighed.

The next data set concerns UVB-induced skin cancer. Put plainly: Prevention of ultraviolet B ray (UVB)-induced skin cancer, DMBA-initiated. The note with it: topical 200 μl of 10% Sample solution once a day, UVB 180 mJ/cm^2 per day, end of 30 weeks. Format: in vivo, SKH-1 hairless mice. As for the experimental part: N-(12-methyl-tridecyl)hydrazine hydrochloride (Sample) was resolved with 0.8% Tween resulting in a final concentration of 10%.
Forty female SKH-1 hairless mice were randomly divided into control and test groups of 20 each. Each mouse in both groups was treated topically once with DMBA (5.12 μg dissolved in 200 μl acetone solution) to achieve tumor initiation. One week later (day 8), animals in test group started to receive topical application of 200 μl. Sample solution once a day. The control group received 200 μl Tween 80 solvent instead every day. Thirty minutes after the application, animals in both groups were exposed to UVB (290–320 nm) radiation at the dosage of 180 mJ/cm^2 per day to induce growth of tumor. The animals were evaluated for tumor development at the end of 30 weeks.

Data set [3] deals with body skin ulcerous wounds (inflammation). Put plainly: Topical application to patients with body skin ulcerous wounds. The class given is in vivo, human. The note with it: oil state applied directly on inflamed surface. The text has this:
12-Methyl-2-tetradecenoic acid in an oil state was directly applied on the inflamed surface of patients with body skin ulcerous wounds.

For data set [4], the system named is oral adnoma and tongue cancer. Put plainly: Topical application to patients of oral adnoma and tongue cancer. Format: in vivo, human. The note with it: oil state applied directly on focus surface, about one week later. The text has this: 12-Methyl-2-tetradecenoic acid in an oil state was directly applied on the focus surface of oral or tongue to patients of oral adnoma and tongue cancer.

The mark [5] stands for this setting: Sample 0.1 g/kg i.g. + CTX 25 mg/kg.
The mark [6] stands for this setting: Sample 0.4 g/kg i.g. + CTX 25 mg/kg.
[7] abbreviates: normal mice, Sample 0.4 g/kg i.g.

The structures appear in SMILES notation. Where two headings read alike, the source gives them in different places. Marks after values point to notes of the source that are not given here.

In the case of `O=P1(N(CCCl)CCCl)NCCCO1` (centres unmarked) [CTX, cytoxan, reference compound], the “K (X ± SD), serum clearance index of carbon grain” value in data set [1] (CTX 25 mg/kg i.g. on day 1 and 6 alone) worked out at 0.0260 ± 0.0116. The “Inhibition Rate” value with mouse sarcoma S180 (CTX 25 mg/kg i.g. single dose on day 1) amounted to 71.82%. In addition, the “Tumor Weight (X ± SD)” value in the data set with mouse sarcoma S180 (CTX 25 mg/kg i.g. single dose on day 1, 12th day) is given as 0.31 ± 0.11^b g. The “Body Weight after treatment (X ± SD)” value in the data set with mouse sarcoma S180 (S180 mice, CTX 25 mg/kg i.g. single dose on day 1) came out at 25.6 ± 1.6 g. The “HC50 (X ± SD)” value in the data set on serum hemolysinogenesis (CTX 25 mg/kg i.g. alone) is recorded as 21.83 ± 4.29. In data set [2] (CTX 25 mg/kg i.g. alone), the Indices of pancreas is given as 2.154 ± 1.189^ mg/10 g avoirdupois and the Indices of thymus was 1.296 ± 0.665^ mg/10 g avoirdupois.

For the molecule `CC(C)CCCCCCCCCCCNN.Cl` [Compound 45, N-(12-methyl-tridecyl)hydrazine hydrochloride], the “effect on the clearance of Carbon grain” value in data set [1] (CTX-treated mouse, Sample 100 and 400 mg/kg) is reported as “improve the clearance of Carbon grain in CTX-treated mouse to a certain extent”. For the same molecule, the “K (X ± SD), serum clearance index of carbon grain” value in data set [1] (Sample 100 mg/kg i.g. daily for 9 days + CTX 25 mg/kg on day 1 and 6) worked out at 0.0433 ± 0.0401; in data set [1] (Sample 400 mg/kg i.g. daily for 9 days + CTX 25 mg/kg on day 1 and 6) it was 0.0603 ± 0.0371; in data set [1] (normal mouse, Sample 400 mg/kg i.g. daily for 9 days), 0.0792 ± 0.0230. In addition, the “effect on the Clearance Index of Carbon grain” value in data set [1] (normal mouse (P1,3>0.05)) is “no obvious effect”. Besides, the figures for the “Inhibition Rate” value in the data set on mouse sarcoma S180 (Sample 100 mg/kg i.g. daily for 11 days), with mouse sarcoma S180 (Sample 200 mg/kg i.g. daily for 11 days) and in the data set with mouse sarcoma S180 (Sample 400 mg/kg i.g. daily for 11 days) were 36.36%, 62.73% and 70.00%, respectively. In addition, the “Tumor Weight (X ± SD)” value in the data set with mouse sarcoma S180 (Sample 100 mg/kg i.g. daily for 11 days, 12th day) is given as 0.70 ± 0.12^b g; in the data set on mouse sarcoma S180 (Sample 200 mg/kg i.g. daily for 11 days, 12th day), 0.41 ± 0.10^b g; with mouse sarcoma S180 (Sample 400 mg/kg i.g. daily for 11 days, 12th day) it was 0.33 ± 0.10^b g. Besides, the “average size of cancer smaller than control” value with UVB-induced skin cancer was 85%. Moreover, the “reduction in tumor incidence compared to control group” value in the data set with UVB-induced skin cancer came out at 45%. The “HC50 (X ± SD)” value with serum hemolysinogenesis (setting [5]) turned out to be 22.45 ± 4.12; in the data set with serum hemolysinogenesis (setting [6]), 24.01 ± 3.87; with serum hemolysinogenesis (normal mouse, Sample 0.4 g/kg i.g.), 32.08 ± 5.06. For the same molecule, the “effects on serum hemolysinogenesis” value in the data set on serum hemolysinogenesis (normal or immune-compromised mouse) is reported as “no obvious effects”. Also, the Indices of pancreas in data set [2] (setting [5]) was 2.459 ± 0.799^ mg/10 g avoirdupois; in data set [2] (setting [6]), 3.506 ± 1.223^ mg/10 g avoirdupois; in data set [2] (setting [7]) it was 4.541 ± 0.508^a mg/10 g avoirdupois. Further, the figures for the Indices of thymus in data set [2] (setting [5]), in data set [2] (setting [6]) and in data set [2] (setting [7]) were 2.448 ± 0.603^a mg/10 g avoirdupois, 3.307 ± 0.721^a mg/10 g avoirdupois and 3.617 ± 1.334^a mg/10 g avoirdupois, respectively. The “indices of immune organs after combined administration” value in data set [2] (mice treated by CTX, combined with Sample) was “these indices increased”. Besides, the “effect on the indices of immune organs” value in data set [2] (normal mice, thymus and pancreas (P1,3>0.05)) is “no significant effect”.

`CCC(C)CCCCCCCC/C=C/C(=O)O` (centres unmarked) [Compound 1, 12-Methyl-2-tetradecenoic acid]: in data set [3], the “anti-inflammation function compared to common anti-inflammatory cream” value is “better anti-inflammation function” and the “healing of ulcerous wound” value is given as “the ulcerous wound healed quickly”. In data set [4], the “effect on focus of oral adnoma and tongue cancer” value is listed as “the focus reduced, swelling disappeared”.
